Laboratory results: US20220409727A1, “Metal Complexes Bearing Bisstyryl-Bipyridine Ligand and Their Use as Photosensitizer Agent in One and Two-Photon Photodynamic Therapy” (Paris Sciences et Lettres, priority 2019, published 2022)
Like-named read-outs stand apart in the source and are kept apart here.

How the values were obtained:
[1] = system: human glioblastoma astrocytoma (U373) cells
[2] = Luminescence lifetime measurements; type: physicochemical; conditions: excitation at 355 nm; for τ/ns air (Lifetime): air saturated CH3CN; for τ/ns degassed (Lifetime): degassed CH3CN
Protocol: (§1) For the determination of the lifetimes, the samples were prepared in an air saturated and in a degassed CH3CN solution with an absorbance of 0.2 at 355 nm. This solution was irradiated in fluorescence quartz cuvettes (width 1 cm) using a NT342B Nd-YAG pumped optical parametric oscillator (Ekspla) at 355 nm. The emission signal was focused and collected at right angle to the excitation pathway and directed to a Princeton Instruments Acton SP-2300i monochromator. As a detector a R928 photomultiplier tube (Hamamatsu) has been used.

[3] = system: non-cancerous retinal pigment epithelium (RPE-1) cells; experiment: (Photo-)cytotoxicity on 2D cell monolayers, resazurin assay, RPE-1; conditions: for PI (480 nm): RPE-1, dark vs 480 nm (10 min, 3.1 J/cm^2); for PI (540 nm): RPE-1, dark vs 540 nm (40 min, 9.5 J/cm^2);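 for all read-outs here: cells exposed to compound 4 h, medium exchanged, then irradiated or kept dark, 44 h further growth, viability by resorufin fluorescence (ex 540 nm, em 590 nm)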
Protocol: The human glioblastoma astrocytoma (U373) cell line was cultured in MEM medium supplemented with 10% FBS, 1% NEAA (non-essential amino-acids) and 1% penicillin/streptomycin. […] The human retinal epithelial cells (RPE-1, non-cancerous cells immortalized with hTERT) were cultured in DMEM-F12 medium supplemented with 10% FBS and 1% penicillin/streptomycin. All cell lines were obtained from the American Type Culture Collection (ATCC) and cultured at 37° C. and 5% CO2. Before an experiment, the cells were passaged three times.
The cytotoxicity of the compounds was assessed by measuring cell viability using a fluorometric resazurin assay. The cultivated cells were seeded in triplicates in 96 well plates with a density of 4000 cells per well in 100 μL of media. After 24 h, the medium was removed and the cells were treated with increasing concentrations of the compound diluted in cell media achieving a total volume of 200 μL. The cells were incubated with the compound for 4 h. After this time, the media was removed and replaced with 200 μL of fresh medium. For the phototoxicity studies, the cells were exposed to light with an Atlas Photonics LUMOS BIO irradiator. Each well was constantly illuminated with either a 480 nm or 540 nm irradiation. During this time, the temperature was maintained constantly at 37° C. The cells were grown in the incubator for additional 44 h. For the determination of the dark cytotoxicity, the cells were not irradiated and after the medium exchange directly incubated for 44 h. After this time, the medium was replaced with fresh medium containing resazurin with a final concentration of 0.2 mg/mL. After 4 h incubation, the amount of the fluorescent product resorufin was determined upon excitation at 540 nm and measurement its emission at 590 nm using a SpectraMax M2 Microplate Reader (Molecular Devices).
The obtained data was analyzed with the GraphPad Prism software.

[4] = Singlet oxygen measurement, indirect evaluation (RNO absorbance); type: physicochemical; conditions: indirect
Protocol: For the measurement in CH3CN: The samples were prepared in an air-saturated CH3CN solution containing the complex with an absorbance of 0.2 at the irradiation wavelength, N,N-dimethyl-4-nitrosoaniline aniline (RNO, 24 μM) and imidazole (12 mM). For the measurement in PBS buffer: The samples were prepared in an air-saturated PBS solution containing the complex with an absorbance of 0.1 at the irradiation wavelength, N,N-dimethyl-4-nitrosoaniline aniline (RNO, 20 μM) and histidine (10 mM). The samples were irradiated on 96 well plates with an Atlas Photonics LUMOS BIO irradiator for different times. The absorbance of the samples was measured during these time intervals with a SpectraMax M2 Microplate Reader (Molecular Devices). The difference in absorbance (A0−A) at 420 nm for the CH3CN solution or at 440 nm a PBS buffer solution was calculated and plotted against the irradiation times. From the plot the slope of the linear regression was calculated as well as the absorbance correction factor determined. The singlet oxygen quantum yields were calculated using the same formulas as used for the direct evaluation.

[5] = Luminescence quantum yield measurements; type: physicochemical; parameters: key: fraction, relative to [Ru(bipy)3]Cl2 reference in CH3CN (Φem=5.9%); conditions: CH3CN, room temperature, excitation at 355 nm
Protocol: as §1, with “luminescence quantum yield,” for “lifetimes,”, “an” for “an air saturated and in a degassed”, “0.1” for “0.2”, “XPI-Max 4 CCD camera (Princeton Instruments)” for “R928 photomultiplier tube (Hamamatsu)”, “used. The luminescence quantum yields were determined by comparison with the reference [Ru(bipy)3]Cl2 in CH3CN (Φem=5.9%) (Nakamaru, K., 1982) applying the following formula:” for “used.”
Φem, sample=Φem, reference*(Freference/Fsample)*(Isample/Ireference)*(nsample/nreference)^2
Φem=luminescence quantum yield, F=fraction of light absorbed, I=integrated emission intensities, n=refractive index, A=absorbance of the sample at irradiation wavelength.

[6] = Emission measurement in CH3CN; type: physicochemical; conditions: room temperature, excitation at 355 nm
Protocol: The absorption of the samples was measured with a SpectraMax M2 Spectrometer (Molecular Devices). The emission was measured by irradiation of the sample in fluorescence quartz cuvettes (width 1 cm) using a NT342B Nd-YAG pumped optical parametric oscillator (Ekspla) at 355 nm. Luminescence was focused and collected at right angle to the excitation pathway and directed to a Princeton Instruments Acton SP-2300i monochromator. As a detector, a XPI-Max 4 CCD camera (Princeton Instruments) has been used.

[7] = system: mouse colon carcinoma (CT-26) cells; experiment: (Photo-)cytotoxicity on 2D cell monolayers, resazurin assay, CT-26; conditions: for PI (480 nm): CT-26, dark vs 480 nm (10 min, 3.1 J/cm^2); for PI (540 nm): CT-26, dark vs 540 nm (40 min, 9.5 J/cm^2); for IC50: compounds 1-3 as chloride salts
[8] = system: human cervical carcinoma (HeLa) cells; experiment: (Photo-)cytotoxicity on 2D cell monolayers, resazurin assay, HeLa; type: cell-based; conditions: for PI (480 nm): dark vs 480 nm (10 min, 3.1 J/cm^2); for PI (540 nm): dark vs 540 nm (40 min, 9.5 J/cm^2)
Description: Before an experiment, the cells were passaged three times.

[9] = system: mouse colon carcinoma (CT-26) cells
[10] = system: human glioblastoma astrocytoma (U373) cells; experiment: (Photo-)cytotoxicity on 2D cell monolayers, resazurin assay, U373; conditions: for PI (480 nm): U373, dark vs 480 nm (10 min, 3.1 J/cm^2); for PI (540 nm): U373, dark vs 540 nm (40 min, 9.5 J/cm^2); for IC50: compounds 1-3 as chloride salts
[11] = Singlet oxygen measurement, direct evaluation (1O2 luminescence at 1270 nm); type: physicochemical
Protocol: The samples were prepared in an air saturated CH3CN or D2O solution with an absorbance of 0.2 at 450 nm. This solution was irradiated in fluorescence quartz cuvettes (width 1 cm) using a mounted M450LP1 LED (Thorlabs) whose irradiation, centered at 450 nm, has been focused with aspheric condenser lenses. The intensity of the irradiation has been varied using a T-Cube LED Driver (Thorlabs) and measured with an optical power and energy meter. The emission signal was focused and collected at right angle to the excitation pathway and directed to a Princeton Instruments Acton SP-2300i monochromator. A longpass glass filter was placed in front of the monochromator entrance slit to cut off light at wavelengths shorter than 850 nm. As a detector an EO-817L IR-sensitive liquid nitrogen cooled germanium diode detector (North Coast Scientific Corp.) has been used. The singlet oxygen luminesce at 1270 nm was measured by recording spectra from 1100 to 1400 nm. For the data analysis, the singlet oxygen luminescence peaks at different irradiation intensities were integrated. The resulting areas were plotted against the percentage of the irradiation intensity and the slope of the linear regression calculated. The absorbance of the sample was corrected with an absorbance correction factor. As reference for the measurement Rose Bengal (Φ=76%) (Kochevar, I. E. and Redmond, R. W., 2000) was used and the singlet oxygen quantum yields were calculated using the following formula:
Φsample=Φreference*(Ssample/Sreference)*(Ireference/Isample)
Φ=singlet oxygen quantum yield, S=slope of the linear regression of the plot of the areas of the singlet oxygen luminescence peaks against the irradiation intensity, I=absorbance correction factor, […] of the irradiation source, A=absorbance of the sample at irradiation wavelength.

[12] = read-out: IC50 540 nm (40 min, 9.5 J/cm^2), CT-26, irradiation 540 nm (40 min, 9.5 J/cm^2)
[13] = read-out: IC50 dark, CT-26, dark, 4 h incubation
[14] = dark, 4 h incubation, compounds 1-3 as chloride salts, read-out: IC50 dark
[15] = read-out: IC50 480 nm (10 min, 3.1 J/cm^2), irradiation 480 nm (10 min, 3.1 J/cm^2), compounds 1-3 as chloride salts
[16] = read-out: IC50 540 nm (40 min, 9.5 J/cm^2), irradiation 540 nm (40 min, 9.5 J/cm^2), compounds 1-3 as chloride salts
[17] = read-out: IC50 480 nm (10 min, 3.1 J/cm^2), U373, irradiation 480 nm (10 min, 3.1 J/cm^2)
[18] = read-out: IC50 dark, U373, dark, 4 h incubation

Compound	IC50 [1] [µM]	PI (480 nm) [3]	PI (540 nm) [3]	Singlet oxygen quantum yield, indirect 450 nm CH3CN [4] [%]	Singlet oxygen quantum yield, indirect 450 nm PBS [4] [%]	Singlet oxygen quantum yield, indirect 540 nm CH3CN [4] [%]	Singlet oxygen quantum yield, indirect 540 nm PBS [4] [%]	PI (480 nm) [7]	PI (540 nm) [7]	IC50 [7, 12] [µM]	IC50 [7, 13] [µM]	PI (480 nm) [8]	PI (540 nm) [8]	IC50 [8, 14] [µM]	IC50 [8, 15] [µM]	IC50 [8, 16] [µM]	IC50 [9] [µM]	IC50 [10, 17] [µM]	IC50 [10, 18] [µM]	Singlet oxygen quantum yield, direct 450 nm CH3CN [11] [%]	other results
C(=C\c1ccnc(-c2cc(/C=C/c3ccccc3)ccn2)c1)/c1ccccc1.C(=C\c1ccnc(-c2cc(/C=C/c3ccccc3)ccn2)c1)/c1ccccc1.C(=C\c1ccnc(-c2cc(/C=C/c3ccccc3)ccn2)c1)/c1ccccc1.F[P-](F)(F)(F)(F)F.F[P-](F)(F)(F)(F)F.[Ru+2] [Compound 1]	83.1 ± 6.7	>3.2	>3.2	66	5	61	3	>4.9	>3.0	33.4 ± 3.5	> 100	>3.4	>2.1	> 100	29.5 ± 1.2	48.7 ± 4.5	20.3 ± 1.8	51.7 ± 3.2	> 100	65	τ/ns air (Lifetime) [2]: 86 ns; τ/ns degassed (Lifetime) [2]: 385 ns; ϕem (Luminescence Quantum Yield) [5]: 0.019; λem/nm (Emission maximum) [6]: 677 nm; PI (480 nm) [10]: >1.9; PI (540 nm) [10]: >1.2
CN(C)c1ccc(/C=C/c2ccnc(-c3cc(/C=C/c4ccc(N(C)C)cc4)ccn3)c2)cc1.CN(C)c1ccc(/C=C/c2ccnc(-c3cc(/C=C/c4ccc(N(C)C)cc4)ccn3)c2)cc1.CN(C)c1ccc(/C=C/c2ccnc(-c3cc(/C=C/c4ccc(N(C)C)cc4)ccn3)c2)cc1.F[P-](F)(F)(F)(F)F.F[P-](F)(F)(F)(F)F.[Ru+2] [Compound 2, [Ru((E,E′)-4,4′-Bis[p-(N,N-dimethylamino)styryl]-2,2′-bipyridine)3][PF6]2]	61.4 ± 5.6	>2.6	>2.0	25	3	16	1	>2.3	>1.6	62.5 ± 8.2	> 100	>3.4	>1.9	> 100	29.4 ± 8.3	52.3 ± 6.1	42.6 ± 3.8	49.1 ± 6	> 100	18	τ/ns air (Lifetime) [2]: 48 ns; τ/ns degassed (Lifetime) [2]: 222 ns; ϕem (Luminescence Quantum Yield) [5]: <0.001; λem/nm (Emission maximum) [6]: 709 nm; PI (480 nm) [10]: >2.0; PI (540 nm) [10]: >1.6
F[P-](F)(F)(F)(F)F.F[P-](F)(F)(F)(F)F.[Ru+2].c1cnc2c(c1)ccc1cccnc12.c1cnc2c(c1)ccc1cccnc12.c1cnc2c(c1)ccc1cccnc12 [[Ru(1,10-phenanthroline)3][PF6]2, reference compound]	> 100			23	2	22	2			> 100	> 100			> 100	> 100	> 100	> 100	> 100	> 100	25	
[Ru(4,7-Diphenyl-1,10-phenanthroline)3][PF6]2 [reference compound]	1.2 ± 0.3	13.4	10.1	47	4	45	3	7.0	5.6	0.5 ± 0.2	2.8 ± 0.5	12.1	7.7	8.5 ± 0.4	0.7 ± 0.2	1.1 ± 0.2	0.4 ± 0.2	1.3 ± 0.2	10.1 ± 0.7	44	PI (480 nm) [10]: 7.8; PI (540 nm) [10]: 8.4
